Test results taken from US6894046B2, “IL-5 inhibiting 6-azauracil derivatives” (Janssen Pharmaceutica N.V., priority 1998, dated 2005).

Tested on: IL-5 production in human blood
Test: In vitro inhibition of IL-5 production in human blood (phytohemagglutinin-stimulated whole blood, ELISA)
Format: cell-based
Conditions: test dose 1×10^−6 M, phytohemagglutinin 2 μg/ml, 48 hours
Procedure: EXAMPLE C.1: IN VITRO INHIBITION OF IL-5 PRODUCTION IN HUMAN BLOOD
Peripheral blood from healthy male donors was drawn into heparinized syringes (12.5 U heparin/ml). Blood samples were three-fold diluted in RMPI 1640 medium (Life Technologies, Belgium) supplemented with 2 mM L-glutamine, 100 U/ml penicillin and 100 μg/ml streptomycin, and 300 μl fractions were distributed in 24-well multidisc plates. Blood samples were preincubated (60 minutes at 37° C.) in a humidified 6% CO2-atmosphere with 100 μl of drug solvent (final concentration 0.02% dimethylsulfoxide in RPMI 1640) or with 100 μl of an appropriate dose of test compound before being stimulated by the addition of 100 μl of phytohemagglutinin HA17 (Murex, UK) at a final concentration of 2 μg/ml. After 48 hours, cell-free supernatant fluids were collected by centrifugation and stored at −70° C. until tested for the presence of IL-5.
IL-5 measurements were conducted as described in Van Wauwe et al. (1996, Inflamm Res, 45, 357-363) on page 358 using ELISA.
Table 6 lists the percentage inhibition of IL-5 production (column “% inh”) at a test dose of 1×10^−6 M, or in case the percentage inhibition is marked with an “*” 1×10^−5 M, for the compounds of the present invention.

**Q.** `CC(C)(c1nc(-c2ccccc2Cl)c(-c2ccccc2)s1)c1c(Cl)cc(-n2ncc(=O)[nH]c2=O)cc1Cl` [Compound 32] was tested. Which “% inh. (percentage inhibition of IL-5 production)” value did it give?
**A.** 91%

**Q.** `CC(C)(c1nc(-c2cccc(Cl)c2)c(-c2ccccc2)s1)c1c(Cl)cc(-n2ncc(=O)[nH]c2=O)cc1Cl` [Compound 37] was tested. Which “% inh. (percentage inhibition of IL-5 production)” value did it give?
**A.** 92%

**Q.** For `COc1ccccc1-c1csc(C(C)(C)c2c(Cl)cc(-n3ncc(=O)[nH]c3=O)cc2Cl)n1` [Compound 26], which “% inh. (percentage inhibition of IL-5 production)” value is on record?
**A.** 84%

**Q.** For `CC(C)(c1nc(-c2ccccc2)c(-c2cccc(OS(N)(=O)=O)c2)s1)c1c(Cl)cc(-n2ncc(=O)[nH]c2=O)cc1Cl` [Compound 66, 3-[2-[1-[2,6-dichloro-4-(4,5-dihydro-3,5-dioxo-1,2,4-triazin-2(3H)-yl)phenyl]-1-methylethyl]-4-phenyl-5-thiazolyl]phenylsulfamate (ester)], which “% inh. (percentage inhibition of IL-5 production)” value is on record?
**A.** 53%

**Q.** Which “% inh. (percentage inhibition of IL-5 production)” value does the source give for `CC(C)(c1nc(-c2ccccc2F)cs1)c1c(Cl)cc(-n2ncc(=O)[nH]c2=O)cc1Cl` [Compound 11] here?
**A.** 88%

**Q.** With `CC(C)(c1nc(-c2ccccc2Cl)cs1)c1c(Cl)cc(-n2ncc(=O)[nH]c2=O)cc1Cl` [Compound 4] as the molecule, how does the “% inh. (percentage inhibition of IL-5 production)” value read?
**A.** 94%

**Q.** With `CC(C)(c1nc(-c2ccccc2Cl)c(C=O)s1)c1c(Cl)cc(-n2ncc(=O)[nH]c2=O)cc1Cl` [Compound 46] as the molecule, how does the “% inh. (percentage inhibition of IL-5 production)” value read?
**A.** 44%

**Q.** `CC(C)(c1nc(-c2ccccc2)c(CC(=O)N2CCC(O)CC2)s1)c1c(Cl)cc(-n2ncc(=O)[nH]c2=O)cc1Cl` [Compound 22] was tested. Which “% inh. (percentage inhibition of IL-5 production)” value did it give?
**A.** 18%

**Q.** For `CC(C)(c1nc(-c2ccccc2)c(CC(=O)O)s1)c1c(Cl)cc(-n2ncc(=O)[nH]c2=O)cc1Cl` [Compound 19, 2-[1-[2,6-dichloro-4-(4,5-dihydro-3,5-dioxo-1,2,4-triazin-2(3H)-yl)phenyl]1-α-methylethyl]-4-phenyl-5-thiazoleacetic acid], which “% inh. (percentage inhibition of IL-5 production)” value is on record?
**A.** 13%

**Q.** For `Cc1ccccc1-c1csc(C(C)(C)c2c(Cl)cc(-n3ncc(=O)[nH]c3=O)cc2Cl)n1` [Compound 40], which “% inh. (percentage inhibition of IL-5 production)” value is on record?
**A.** 89%

**Q.** With `CC(C)(c1noc(-c2cccs2)n1)c1c(Cl)cc(-n2ncc(=O)[nH]c2=O)cc1Cl` [Compound 92] as the molecule, how does the “% inh. (percentage inhibition of IL-5 production)” value read?
**A.** 80%

**Q.** Which “% inh. (percentage inhibition of IL-5 production)” value does the source give for `CCOC(=O)Cc1sc(C(C)(C)c2c(Cl)cc(-n3ncc(=O)[nH]c3=O)cc2Cl)nc1-c1ccccc1` [Compound 9] here?
**A.** 88%

**Q.** With `Cc1ccc(-c2csc(C(C)(C)c3c(Cl)cc(-n4ncc(=O)[nH]c4=O)cc3Cl)n2)s1` [Compound 76] as the molecule, how does the “% inh. (percentage inhibition of IL-5 production)” value read?
**A.** 75%

**Q.** Which “% inh. (percentage inhibition of IL-5 production)” value does the source give for `CC(C)(c1noc(-c2ccccc2CO)n1)c1c(Cl)cc(-n2ncc(=O)[nH]c2=O)cc1Cl` [Compound 155] here?
**A.** 85%

**Q.** `Cc1sc(C(C)(C)c2c(Cl)cc(-n3ncc(=O)[nH]c3=O)cc2Cl)nc1-c1ccccc1Cl` [Compound 27] was tested. Which “% inh. (percentage inhibition of IL-5 production)” value did it give?
**A.** 77%

**Q.** `CN1CCN(Cc2ccc(-c3csc(C(C)(C)c4c(Cl)cc(-n5ncc(=O)[nH]c5=O)cc4Cl)n3)s2)CC1` [Compound 112] was tested. Which “% inh. (percentage inhibition of IL-5 production)” value did it give?
**A.** 39%

**Q.** `Cc1ccsc1-c1csc(C(C)(C)c2c(Cl)cc(-n3ncc(=O)[nH]c3=O)cc2Cl)n1` [Compound 75] was tested. Which “% inh. (percentage inhibition of IL-5 production)” value did it give?
**A.** 91%

**Q.** How did the “% inh. (percentage inhibition of IL-5 production)” value turn out when `Cc1sc(C(C)(C)c2c(Cl)cc(-n3ncc(=O)[nH]c3=O)cc2Cl)nc1-c1ccccc1` [Compound 10] was run?
**A.** 85%

**Q.** How did the “% inh. (percentage inhibition of IL-5 production)” value turn out when `Cc1ccc(-c2nc(C(C)(C)c3c(Cl)cc(-n4ncc(=O)[nH]c4=O)cc3Cl)no2)cc1` [Compound 125] was run?
**A.** 43%

**Q.** For “2-[3,5-dichloro-4-(2-pyridinyl-methyl)phenyl]-1,2,4-triazine-3,5(2H,4H)-dione hydrochloride(:1); hydrate(1:1) [Compound 107]”, which “% inh. (percentage inhibition of IL-5 production)” value is on record?
**A.** 14%

**Q.** `CCOC(=O)c1sc(C(C)(C)c2c(Cl)cc(-n3ncc(=O)[nH]c3=O)cc2Cl)nc1-c1ccccc1` [Compound 6] was tested. Which “% inh. (percentage inhibition of IL-5 production)” value did it give?
**A.** 94%

**Q.** How did the “% inh. (percentage inhibition of IL-5 production)” value turn out when `CCOC(=O)Cc1sc(C(C)(C)c2c(Cl)cc(-n3ncc(=O)[nH]c3=O)cc2Cl)nc1-c1cccs1` [Compound 118] was run?
**A.** 78%

**Q.** Which “% inh. (percentage inhibition of IL-5 production)” value does the source give for `COCc1sc(C(C)(C)c2c(Cl)cc(-n3ncc(=O)[nH]c3=O)cc2Cl)nc1-c1ccccc1` [Compound 30] here?
**A.** 93%

**Q.** Which “% inh. (percentage inhibition of IL-5 production)” value does the source give for `CC(C)OC(=O)c1cccc(-c2sc(C(C)(C)c3c(Cl)cc(-n4ncc(=O)[nH]c4=O)cc3Cl)nc2-c2ccccc2Cl)c1` [Compound 65] here?
**A.** 36%

**Q.** Which “% inh. (percentage inhibition of IL-5 production)” value does the source give for `CC(C)(c1nc(-c2ccccc2F)c(-c2ccccc2)s1)c1c(Cl)cc(-n2ncc(=O)[nH]c2=O)cc1Cl` [Compound 34] here?
**A.** 93%

**Q.** `CC(C)(c1nc(-c2ccncc2)cs1)c1c(Cl)cc(-n2ncc(=O)[nH]c2=O)cc1Cl` [Compound 7] was tested. Which “% inh. (percentage inhibition of IL-5 production)” value did it give?
**A.** 88%

**Q.** With `CC(C)(c1nc(-c2ccc(Cl)s2)cs1)c1c(Cl)cc(-n2ncc(=O)[nH]c2=O)cc1Cl` [Compound 73] as the molecule, how does the “% inh. (percentage inhibition of IL-5 production)” value read?
**A.** 84%

**Q.** For `Cc1ccc(-c2nc(C(C)(C)c3c(Cl)cc(-n4ncc(=O)[nH]c4=O)cc3Cl)sc2Br)s1` [Compound 111], which “% inh. (percentage inhibition of IL-5 production)” value is on record?
**A.** 88%

**Q.** For `CC(C)(C)OC(=O)c1sc(C(C)(C)c2c(Cl)cc(-n3ncc(=O)[nH]c3=O)cc2Cl)nc1-c1cccs1` [Compound 119], which “% inh. (percentage inhibition of IL-5 production)” value is on record?
**A.** 93%

**Q.** For `CC(C)(c1nc(-c2ccccc2Cl)c(-c2cccc(C(=O)O)c2)s1)c1c(Cl)cc(-n2ncc(=O)[nH]c2=O)cc1Cl` [Compound 56], which “% inh. (percentage inhibition of IL-5 production)” value is on record?
**A.** −4%

Same assay, conditions: test dose 1×10^−6 M, phytohemagglutinin 2 μg/ml, 48 hours, read-out: % inh. (percentage inhibition of IL-5 production)

**Q.** With `CC(C)(c1nc(-c2ccc(N(S(C)(=O)=O)S(C)(=O)=O)s2)cs1)c1c(Cl)cc(-n2ncc(=O)[nH]c2=O)cc1Cl` [Compound 81, N-[5-[2-[1-[2,6-dichloro-4-(4,5-dihydro-3,5-dioxo-1,2,4-triazine-2(3H)-yl)phenyl]-1-methylethyl]-4-thiazolyl]-2-thienyl]-N-(methylsulfonyl)methanesulfonamide] as the molecule, how does the inhibition at 1 µM read?
**A.** 34%

**Q.** How did the inhibition at 1 µM turn out when `CC(C)(c1nc(-c2ccccc2)c(-c2cccc(N)c2)s1)c1c(Cl)cc(-n2ncc(=O)[nH]c2=O)cc1Cl` [Compound 50, 2-[4-[1-[5-(3-aminophenyl)4-phenyl-2-thiazolyl]-1-methylethyl]-3,5-dichlorophenyl]-1,2,4-triazine-3,5(2H,4H)-dione] was run?
**A.** 91%

**Q.** `CC(C)(c1nc(-c2ccccc2)c(-c2cccc(NC(=O)N3CCNCC3)c2)s1)c1c(Cl)cc(-n2ncc(=O)[nH]c2=O)cc1Cl` [Compound 71, N-[3-[2-[1-[2,6-dichloro-4-(4,5-dihydro-3,5-dioxo-1,2,4-triazin-2(3H)-yl)phenyl]-1-methylethyl]-4-phenyl-5-thiazolyl]-phenyl]-1-piperazinecarboxamide monohydrate] was tested. Which inhibition at 1 µM did it give?
**A.** 27%

**Q.** For `CC(C)(c1nc(-c2ccco2)cs1)c1c(Cl)cc(-n2ncc(=O)[nH]c2=O)cc1Cl` [Compound 83, 2-[3,5-dichloro-4-[1-[4-(2-furanyl)-2-thiazolyl]-1-methylethyl]phenyl]-1,2,4-triazine-3,5(2H,4H)-dione], which inhibition at 1 µM is on record?
**A.** 78%

**Q.** Which inhibition at 1 µM does the source give for `CC(C)(c1nc(-c2ccccc2)c(-c2cccc(O)c2)s1)c1c(Cl)cc(-n2ncc(=O)[nH]c2=O)cc1Cl` [Compound 58, 2-[3,5-dichloro-4-[1-[5-(3-hydroxyphenyl)4-phenyl-2-thiazolyl]-1-methyl-ethyl]phenyl]-1,2,4-triazine-3,5(2H,4H)-dione] here?
**A.** 84%

**Q.** Which inhibition at 1 µM does the source give for `CC(C)(c1nc(-c2ccccc2)c(-c2cccc(NC(N)=O)c2)s1)c1c(Cl)cc(-n2ncc(=O)[nH]c2=O)cc1Cl` [Compound 54, N-[3-[2-[1-[2,6-dichloro-4-(4,5-dihydro-3,5-dioxo-1,2,4-triazin-2(3H)-yl)phenyl]-1-methylethyl]-4-phenyl-5-thiazolyl]phenyl]urea] here?
**A.** 61%

**Q.** Which inhibition at 1 µM does the source give for `Cc1nc(C(C)(C)c2c(Cl)cc(-n3ncc(=O)[nH]c3=O)cc2Cl)sc1-c1ccccc1` [Compound 31, 2-[3,5-dichloro-4-[1-methyl-1-(4-methyl-5-phenyl-2-thiazolyl)ethyl]phenyl]-1,2,4-triazine-3,5(2H,4H)-dione] here?
**A.** 87%

**Q.** Which inhibition at 1 µM does the source give for `CC(C)(c1nc(-c2ccsc2)cs1)c1c(Cl)cc(-n2ncc(=O)[nH]c2=O)cc1Cl` [Compound 72, 2-[3,5-dichloro-4-[1-methyl-1-[4-(3-thienyl)-2-thiazolyl]ethyl]phenyl]-1,2,4-triazine-3,5(2H,4H)-dione] here?
**A.** 84%

**Q.** How did the inhibition at 1 µM turn out when `CC(C)(c1cc(Cl)c(-n2ncc(=O)[nH]c2=O)c(Cl)c1)c1nc(-c2ccccc2Cl)c(-c2cccc(C(N)=O)c2)s1` [Compound 62, 3-[2-[1-[3,5-dichloro-4-(4,5-dihydro-3,5-dioxo-1,2,4-triazin-2(3H)-yl)phenyl]-1-methylethyl]-4-(2-chlorophenyl)-5-thiazolyl]benzamide] was run?
**A.** 53%
